Results on 35 compounds are retold here after PMC3265452 (PLoS Neglected Tropical Diseases, 2012).

Counter-ions that a name gives are not always drawn.

The target of one test is AaDOP2 (Aedes aegypti, UniProt H6D5H2). The test can be described thus: AaDOP2 antagonist screen of the LOPAC1280 library (HEK-CRELuc-Aadop2 cells, luminescence). It counts as cell-based.
Chain of AaDOP2 (H6D5H2 1-476): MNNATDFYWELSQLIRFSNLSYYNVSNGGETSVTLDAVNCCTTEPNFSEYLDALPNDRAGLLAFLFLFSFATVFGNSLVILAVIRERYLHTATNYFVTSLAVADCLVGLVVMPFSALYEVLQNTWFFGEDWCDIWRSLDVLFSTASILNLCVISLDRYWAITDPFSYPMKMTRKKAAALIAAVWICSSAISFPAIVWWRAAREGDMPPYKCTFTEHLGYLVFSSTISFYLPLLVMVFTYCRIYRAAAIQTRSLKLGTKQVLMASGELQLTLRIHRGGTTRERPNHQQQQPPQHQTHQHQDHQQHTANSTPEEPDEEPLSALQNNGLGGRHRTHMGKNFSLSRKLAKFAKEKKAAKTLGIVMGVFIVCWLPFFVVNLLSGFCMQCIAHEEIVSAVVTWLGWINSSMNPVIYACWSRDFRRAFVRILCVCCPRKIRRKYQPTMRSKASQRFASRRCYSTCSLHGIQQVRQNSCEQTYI
Details: not given
Take `O=c1[nH]c2ccccc2n1C1CCN(CCCC(c2ccc(F)cc2)c2ccc(F)cc2)CC1` [Compound 927, Pimozide]: the “Compound effect (percent receptor signaling in presence of test compound, relative lux units relative to the SCH23390 control)” value worked out at 61. Same read-out and setting: the value for `CC(=O)O[C@H]1C[C@@H]2CC[C@@H]3[C@H](CC[C@@]4(C)[C@H]3C[C@H]([N+]3(C)CCCCC3)[C@@H]4OC(C)=O)[C@@]2(C)C[C@@H]1[N+]1(C)CCCCC1` [Compound 929, Pancuronium bromide] was 96; that for `C[C@]12CC[C@@H](O)C[C@@H]1CC[C@@H]1[C@@H]2CC[C@]2(C)[C@@H](C(=O)CO)CC[C@@H]12` [Compound 930, 3-alpha,21-Dihydroxy-5-alpha-pregnan-20-one] was 96; that for `Cc1ccc(=O)n(-c2ccccc2)c1` [Compound 931, Pirfenidone] was 102.

As for `Cn1c(=O)c2[nH]c(-c3ccccc3)nc2n(C)c1=O` [Compound 932, 1,3-Dimethyl-8-phenylxanthine], the “Compound effect (percent receptor signaling in presence of test compound, relative lux units relative to the SCH23390 control)” value is listed as 107. Same read-out and setting: with `N=C1Sc2ccccc2C2=NCCCN12` [Compound 935, PD 404,182] the figure was 101; with `COc1ccc(Cc2nccc3cc(OC)c(OC)cc23)cc1OC` [Compound 936, Papaverine hydrochloride], 92.

As to `S=C(Nc1ccccc1)Nc1nccs1` [Compound 938, 1-Phenyl-3-(2-thiazolyl)-2-thiourea], the “Compound effect (percent receptor signaling in presence of test compound, relative lux units relative to the SCH23390 control)” value was determined as 84. Take `C=C/C(C)=C/[C@@]1(C)SC(=O)C(C)=C1O` [Compound 939, Thiolactomycin]: the “Compound effect (percent receptor signaling in presence of test compound, relative lux units relative to the SCH23390 control)” value was 96. In the case of `N.N.[Cl][Pt][Cl]` [Compound 940, Cisplatin], the “Compound effect (percent receptor signaling in presence of test compound, relative lux units relative to the SCH23390 control)” value is 88.

Turning to `COc1cc([C@@H]2c3cc4c(cc3[C@H](O)[C@H]3COC(=O)[C@H]23)OCO4)cc(OC)c1OC` [Compound 941, Podophyllotoxin], the “Compound effect (percent receptor signaling in presence of test compound, relative lux units relative to the SCH23390 control)” value stood at 84. Take `CC(C)[C@H](CO)Nc1nc(Nc2cccc(Cl)c2)c2ncn(C(C)C)c2n1` [Compound 942, Purvalanol A]: the “Compound effect (percent receptor signaling in presence of test compound, relative lux units relative to the SCH23390 control)” value is on record as 7.

As for `C[C@H](Cc1ccccc1)Nc1ncnc2c1ncn2[C@@H]1O[C@H](CO)[C@@H](O)[C@H]1O` [Compound 944, R(-)-N6-(2-Phenylisopropyl)adenosine], the “Compound effect (percent receptor signaling in presence of test compound, relative lux units relative to the SCH23390 control)” value worked out at 112. Same read-out and setting: the value for `CCCC(CCC)C(=O)O` [Compound 945, Valproic acid sodium] was 85; that for `O=C(C1CCCCC1)N1CC(=O)N2CCc3ccccc3C2C1` (centres unmarked) [Compound 947, Praziquantel] was 81. Turning to `CCCNCC(O)COc1ccccc1C(=O)CCc1ccccc1` (centres unmarked) [Compound 948, Propafenone hydrochloride], the “Compound effect (percent receptor signaling in presence of test compound, relative lux units relative to the SCH23390 control)” value turned out to be 74. On the same count and under the same terms, the value for `CC(=O)[C@H]1CC[C@H]2[C@@H]3CC[C@H]4C[C@H](O)CC[C@]4(C)[C@H]3C(=O)C[C@]12C` [Compound 949, 5alpha-Pregnan-3alpha-ol-11,20-dione] was 89; that for `CN1C(C)(C)CCCC1(C)C` [Compound 950, Pempidine tartrate] was 100; that for `NC(=O)CN1CCCC1=O` [Compound 951, Piracetam] was 103.

Turning to `C[C@@H]1O[C@@H]1P(=O)(O)O` [Compound 952, Phosphomycin disodium], the “Compound effect (percent receptor signaling in presence of test compound, relative lux units relative to the SCH23390 control)” value stood at 104. In the case of `COc1ccc(CN(CCN(C)C)c2ccccn2)cc1` [Compound 953, Pyrilamine maleate], the “Compound effect (percent receptor signaling in presence of test compound, relative lux units relative to the SCH23390 control)” value came to 59. Still for that read-out and setting: with `CN1C(C(=O)Nc2ccccn2)=C(O)c2ccccc2S1(=O)=O` [Compound 954, Piroxicam] the figure was 83. In the case of `CCCn1c(=O)[nH]c(=O)c2[nH]cnc21` [Compound 955, 3-n-Propylxanthine], the “Compound effect (percent receptor signaling in presence of test compound, relative lux units relative to the SCH23390 control)” value turned out to be 93.

Regarding `CNC[C@H](O)c1cccc(O)c1` [Compound 956, Phenylephrine hydrochloride], the “Compound effect (percent receptor signaling in presence of test compound, relative lux units relative to the SCH23390 control)” value is recorded as 93. Consider `OCCN1CCN(CCCN2c3ccccc3Sc3ccc(Cl)cc32)CC1` [Compound 957, Perphenazine], for which the “Compound effect (percent receptor signaling in presence of test compound, relative lux units relative to the SCH23390 control)” value was 5. As to `C1CCc2nnnn2CC1` [Compound 958, Pentylenetetrazole], the “Compound effect (percent receptor signaling in presence of test compound, relative lux units relative to the SCH23390 control)” value is 94. With `CC[C@@H]1C(=O)OC[C@@H]1Cc1cncn1C` [Compound 960, Pilocarpine nitrate], the “Compound effect (percent receptor signaling in presence of test compound, relative lux units relative to the SCH23390 control)” value is given as 96. `CN(C)CCCN1c2ccccc2Sc2ccccc21` [Compound 961, Promazine hydrochloride]: the “Compound effect (percent receptor signaling in presence of test compound, relative lux units relative to the SCH23390 control)” value is recorded as 12. Turning to `NNCCc1ccccc1` [Compound 962, Phenelzine sulfate], the “Compound effect (percent receptor signaling in presence of test compound, relative lux units relative to the SCH23390 control)” value stood at 93. The same measure, in the same setting: the value for `CN(C)CCC(c1ccccc1)c1ccccn1` (centres unmarked) [Compound 963, Pheniramine maleate] was 91. Still for that read-out and setting: with `O=C(O)CP(=O)(O)O` [Compound 964, Phosphonoacetic acid] the figure was 84.

The same test, now with this note: 10 µM compound, 300 nM dopamine, 2 hr; hit = compound effect <20.
As for `O=C(O)CC[C@@H](C(=O)O)N1C(=O)c2ccccc2C1=O` [Compound 928, L-Glutamic acid, N-phthaloyl-], the “Compound effect (percent receptor signaling in presence of test compound, relative lux units relative to the SCH23390 control)” value was found to be 106%. The same measure, in the same setting: the value for `Cc1nc(N=Nc2cc(S(=O)(=O)[O-])c3cc([N+](=O)[O-])cc(S(=O)(=O)[O-])c3c2)c(COP(=O)([O-])[O-])c(C=O)c1O.[Na+].[Na+].[Na+].[Na+]` [Compound 934, PPNDS tetrasodium] was 106%. Regarding `C[N+]1(CCCCC[N+]2(C)CCCC2)CCCC1.O=C([O-])C(O)C(O)C(=O)O.O=C([O-])C(O)C(O)C(=O)O` [Compound 937, Pentolinium di[L(+)-tartrate]], the “Compound effect (percent receptor signaling in presence of test compound, relative lux units relative to the SCH23390 control)” value was 94%.

For `CC[C@@H]1C(=O)OC[C@@H]1Cc1cncn1C.Cl` [Compound 959, (+)-Pilocarpine hydrochloride], the “Compound effect (percent receptor signaling in presence of test compound, relative lux units relative to the SCH23390 control)” value is recorded as 104%.

The same test, now with this note: read-out: % of the SCH23390 effect (percent inhibition of receptor response relative to the SCH23390 control).
In general, inhibition refers to the change of the read-out against control, counted positive when it falls. As to `CC(C)[C@H](CO)Nc1nc(Nc2cccc(Cl)c2)c2ncn(C(C)C)c2n1` [Compound 942, Purvalanol A], the inhibition at 10 µM was determined as 93%. The same measure, in the same setting: with `OCCN1CCN(CCCN2c3ccccc3Sc3ccc(Cl)cc32)CC1` [Compound 957, Perphenazine] the figure was 95%; with `CN(C)CCCN1c2ccccc2Sc2ccccc21` [Compound 961, Promazine hydrochloride], 88%.
